Target: T1, GAβ-dependent amyloid fibril formation (Human Aβ1-40 + GM1-containing liposome) (Homo sapiens, UniProt P05067)
T1 construct: Human Aβ1-40 (cat. #4307-v, prepared by Peptide Institute); purchased Peptide Institute 4307-v
Assay: Thioflavin T (ThT) assay of GAβ-dependent amyloid fibril formation (Aβ1-40 with GM1-containing liposome)
Assay type: biochemical
Conditions: @25 μM; read-out: ThT Inhibitory activity (% inhibition)
Outline: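 Human Aβ1-40 (75 μM stock) pre-incubated 10 min at room temperature with compound (75 or 15 μM solution), then GM1-containing cholesterol/sphingomyelin liposome added and incubated 37° C, 18 hours. Fibrils quantified by ThT fluorescence (ex 430/em 490 nm, pH 8.5 glycine buffer); inhibition as ratio to compound-free control.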

T1 sequence (P05067 672-711 limits assumed): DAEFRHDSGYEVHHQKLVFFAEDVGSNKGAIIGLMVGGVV

Row | SMILES | inhibition at 25 µM
1 | O=C(N[C@@H](CO)c1nc(-c2ccc(C(F)(F)F)cc2)no1)c1c(F)cccc1F [Compound 197, 2,6-difluoro-N-[(1S)-2-hydroxy-1-{3-[4-(trifluoromethyl)phenyl]-1,2,4-oxadiazol-5-yl}ethyl]benzamide] | 70%
2 | O=C(N[C@@H](CO)c1nc(-c2ccc(C(F)(F)F)cc2)no1)c1ccc(N2CCCC2)cc1 [Compound 203, N-[(1S)-2-hydroxy-1-{3-[4-(trifluoromethyl)phenyl]-1,2,4-oxadiazol-5-yl}ethyl]-4-(pyrrolidin-1-yl) benzamide] | 81%
3 | Cl.O=C(N[C@@H](CO)c1nc(-c2ccc(C(F)(F)F)cn2)no1)c1ccc(F)cc1 [Compound 206, 4-fluoro-N-[(1S)-2-hydroxy-1-{3-[5-(trifluoromethyl)pyridin-2-yl]-1,2,4-oxadiazol-5-yl}ethyl]benzamide hydrochloride] | 55%
4 | O=C(N[C@@H](CO)c1nc(-c2c[nH]c3ccccc23)no1)c1ccc(F)cc1 [Compound 211, 4-fluoro-N-[(1S)-2-hydroxy-1-[3-(1H-indol-3-yl)-1,2,4-oxadiazol-5-yl]ethyl]benzamide] | 89%

Same assay, conditions: inhibition rate against amyloid fibril formation, final concentration of the compound 25 μM

Row | SMILES | Inhibitory activity ABC evaluation
5 | O=C(N[C@@H](CO)c1nc(-c2ccc(C(F)(F)F)cn2)no1)c1ccc(Cl)cc1 [Compound 205, 4-chloro-N-[(1S)-2-hydroxy-1-{3-[5-(trifluoromethyl)pyridin-2-yl]-1,2,4-oxadiazol-5-yl}ethyl]benzamide] | B (40% or more and less than 80% were evaluated as B)
6 | Cl.O=C(N[C@@H](CO)c1nc(-c2ccc(C(F)(F)F)cn2)no1)c1ccc(F)cc1 [Compound 206, 4-fluoro-N-[(1S)-2-hydroxy-1-{3-[5-(trifluoromethyl)pyridin-2-yl]-1,2,4-oxadiazol-5-yl}ethyl]benzamide hydrochloride] | B (40% or more and less than 80% were evaluated as B)
7 | Cl.O=C(N[C@@H](CO)c1nc(-c2ccc(C(F)(F)F)cn2)no1)c1ccc(Cl)cc1 [Compound 207, 4-chloro-N-[(1S)-2-hydroxy-1-{3-[5-(trifluoromethyl)pyridin-2-yl]-1,2,4-oxadiazol-5-yl}ethyl]benzamide hydrochloride] | A (80% or more was evaluated as A)

Same assay, conditions: inhibition rate against amyloid fibril formation, final concentration of the compound 25 μM; read-out: Inhibitory activity ABC evaluation

Row | SMILES | inhibition at 25 µM
8 | O=C(N[C@@H](CO)c1nc(-c2ccc(C(F)(F)F)cc2)no1)C1CNc2ccccc2O1 (stereo partly drawn) [Compound 192, N-[(1S)-2-hydroxy-1-{3-[4-(trifluoromethyl)phenyl]-1,2,4-oxadiazol-5-yl}ethyl]-3,4-dihydro-2H-1,4-benzoxazine-2-carboxamide] | > 80%
9 | O=C(N[C@@H](CO)c1nc(-c2ccc(C(F)(F)F)cc2)no1)C1CC(=O)N(c2ccc(Cl)cc2)C1 (stereo partly drawn) [Compound 193, 1-(4-chlorophenyl)-N-[(1S)-2-hydroxy-1-{3-[4-(trifluoromethyl)phenyl]-1,2,4-oxadiazol-5-yl}ethyl]-5-oxopyrrolidine-3-carboxamide] | 40 to 80%
10 | O=C(N[C@@H](CO)c1nc(-c2ccc3[nH]cc(F)c3c2)no1)c1ccc(F)cc1 [Compound 194, 4-fluoro-N-[(1S)-1-[3-(3-fluoro-1H-indol-5-yl)-1,2,4-oxadiazol-5-yl]-2-hydroxyethyl] benzamide] | 40 to 80%
11 | O=C(N[C@@H](CO)c1nc(-c2ccc(C(F)(F)F)cc2)no1)c1ccc(F)c(Cl)c1 [Compound 195, 3-chloro-4-fluoro-N-[(1S)-2-hydroxy-1-{3-[4-(trifluoromethyl)phenyl]-1,2,4-oxadiazol-5-yl}ethyl]benzamide] | > 80%
12 | O=C(N[C@@H](CO)c1nc(-c2ccc(C(F)(F)F)cc2)no1)c1cc(F)cc(F)c1 [Compound 196, 3,5-difluoro-N-[(1S)-2-hydroxy-1-{3-[4-(trifluoromethyl)phenyl]-1,2,4-oxadiazol-5-yl}ethyl]benzamide] | > 80%
13 | O=C(N[C@@H](CO)c1nc(-c2ccc(C(F)(F)F)cc2)no1)c1c(F)cccc1F [Compound 197, 2,6-difluoro-N-[(1S)-2-hydroxy-1-{3-[4-(trifluoromethyl)phenyl]-1,2,4-oxadiazol-5-yl}ethyl]benzamide] | 40 to 80%
14 | O=C(N[C@@H](CO)c1nc(-c2ccc(C(F)(F)F)cc2)no1)c1ccc(Cl)s1 [Compound 198, 5-chloro-N-[(1S)-2-hydroxy-1-{3-[4-(trifluoromethyl)phenyl]-1,2,4-oxadiazol-5-yl}ethyl]thiophene-2-carboxamide] | > 80%
15 | O=C(N[C@@H](CO)c1nc(-c2ccc(C(F)(F)F)cc2)no1)c1ccc(OC(F)(F)F)cc1 [Compound 199, N-[(1S)-2-hydroxy-1-{3-[4-(trifluoromethyl)phenyl]-1,2,4-oxadiazol-5-yl}ethyl]-4-(trifluoromethoxy) benzamide] | > 80%
16 | O=C(N[C@@H](CO)c1nc(-c2ccc(C(F)(F)F)cc2)no1)c1ccc(N2CCOCC2)cc1 [Compound 200, N-[(1S)-2-hydroxy-1-{3-[4-(trifluoromethyl)phenyl]-1,2,4-oxadiazol-5-yl}ethyl]-4-(morpholin-4-yl) benzamide] | 40 to 80%
17 | O=C(N[C@@H](CO)c1nc(-c2ccc(C(F)(F)F)cc2)no1)c1ccc(Oc2ccccc2)cc1 [Compound 201, N-[(1S)-2-hydroxy-1-{3-[4-(trifluoromethyl)phenyl]-1,2,4-oxadiazol-5-yl}ethyl]-4-phenoxybenzamide] | > 80%
18 | O=C(N[C@@H](CO)c1nc(-c2ccc(C(F)(F)F)cc2)no1)c1ccc2ccccc2c1 [Compound 202, N-[(1S)-2-hydroxy-1-{3-[4-(trifluoromethyl)phenyl]-1,2,4-oxadiazol-5-yl}ethyl]naphthalene-2-carboxamide] | 40 to 80%
19 | O=C(N[C@@H](CO)c1nc(-c2ccc(C(F)(F)F)cc2)no1)c1ccc(N2CCCC2)cc1 [Compound 203, N-[(1S)-2-hydroxy-1-{3-[4-(trifluoromethyl)phenyl]-1,2,4-oxadiazol-5-yl}ethyl]-4-(pyrrolidin-1-yl) benzamide] | > 80%
20 | O=C(N[C@@H](CO)c1nc(-c2ccc(C(F)(F)F)cn2)no1)c1ccc(F)cc1 [Compound 204, 4-fluoro-N-[(1S)-2-hydroxy-1-{3-[5-(trifluoromethyl)pyridin-2-yl]-1,2,4-oxadiazol-5-yl}ethyl]benzamide] | 40 to 80%
21 | O=C(/C=C/c1ccc(F)cc1)N[C@@H](CO)c1nc(-c2ccc(C(F)(F)F)cc2)no1 [Compound 208, (2E)-3-(4-fluorophenyl)-N-[(1S)-2-hydroxy-1-{3-[4-(trifluoromethyl)phenyl]-1,2,4-oxadiazol-5-yl}ethyl]prop-2-enamide] | 40 to 80%
22 | CN(C)c1ccc(C(=O)N[C@@H](CO)c2nc(-c3ccc(C(F)(F)F)cc3)no2)cc1 [Compound 209, 4-(dimethylamino)-N-[(1S)-2-hydroxy-1-{3-[4-(trifluoromethyl)phenyl]-1,2,4-oxadiazol-5-yl}ethyl]benzamide] | > 80%
23 | O=C(N[C@@H](CO)c1nc(-c2ccc(C(F)(F)F)s2)no1)c1ccc(F)cc1 [Compound 210, 4-fluoro-N-[(1S)-2-hydroxy-1-{3-[5-(trifluoromethyl)thiophen-2-yl]-1,2,4-oxadiazol-5-yl}ethyl] benzamide] | > 80%
24 | O=C(N[C@@H](CO)c1nc(-c2c[nH]c3ccccc23)no1)c1ccc(F)cc1 [Compound 211, 4-fluoro-N-[(1S)-2-hydroxy-1-[3-(1H-indol-3-yl)-1,2,4-oxadiazol-5-yl]ethyl]benzamide] | > 80%
25 | O=C(N[C@H](CO)c1nc(-c2ccc(C(F)(F)F)cc2)no1)c1ccc(F)cc1 [Compound 212, 4-fluoro-N-[(1R)-2-hydroxy-1-{3-[4-(trifluoromethyl)phenyl]-1,2,4-oxadiazol-5-yl}ethyl]benzamide] | 40 to 80%
26 | O=C(N[C@H](CO)c1nc(-c2ccc(C(F)(F)F)cc2)no1)c1ccccc1 [Compound 213, N-[(1R)-2-hydroxy-1-{3-[4-(trifluoromethyl)phenyl]-1,2,4-oxadiazol-5-yl}ethyl]benzamide] | < 40%
27 | O=C(N[C@H](CO)c1nc(-c2ccc(C(F)(F)F)cc2)no1)c1ccc(Cl)cc1 [Compound 214, 4-chloro-N-[(1R)-2-hydroxy-1-{3-[4-(trifluoromethyl)phenyl]-1,2,4-oxadiazol-5-yl}ethyl]benzamide] | 40 to 80%
28 | O=C(N[C@@H](CO)c1nc(-c2cc(C(F)(F)F)cc(C(F)(F)F)c2)no1)c1ccc(F)cc1 [Compound 215, N-[(1S)-1-{3-[3,5-bis(trifluoromethyl)phenyl]-1,2,4-oxadiazol-5-yl}-2-hydroxyethyl]-4-fluorobenzamide] | 40 to 80%
29 | O=C(N[C@@H](CO)c1nc(-c2ccc(OCC(F)(F)F)cc2)no1)c1ccc(F)cc1 [Compound 216] | < 40%
30 | O=C(N[C@@H](CO)c1nc(-c2ccc(C(F)(F)F)c(F)c2)no1)c1ccc(F)cc1 [Compound 217, 4-fluoro-N-[(1S)-1-{3-[3-fluoro-4-(trifluoromethyl)phenyl]-1,2,4-oxadiazol-5-yl}-2-hydroxyethyl] benzamide] | 40 to 80%
31 | O=C(N[C@@H](CO)c1nc(-c2cc(F)cc(F)c2)no1)c1ccc(F)cc1 [Compound 218, N-[(1S)-1-[3-[3,5-difluorophenyl)-1,2,4-oxadiazol-5-yl]-2-hydroxyethyl]-4-fluorobenzamide] | 40 to 80%
32 | O=C(N[C@@H](CO)c1nc(-c2ccc(F)cc2Cl)no1)c1ccc(F)cc1 [Compound 219, N-[(1S)-1-[3-(2-chloro-4-fluorophenyl)-1,2,4-oxadiazol-5-yl]-2-hydroxyethyl]-4-fluorobenzamide] | < 40%
33 | O=C(N[C@@H](CO)c1nc(-c2cccc(C(F)(F)F)c2)no1)c1ccc(N2CCOCC2)cc1 [Compound 220] | > 80%
34 | O=C(N[C@@H](CO)c1nc(-c2cccc(C(F)(F)F)c2)no1)c1ccc(N2CCCC2)cc1 [Compound 221, N-[(1S)-2-hydroxy-1-{3-[3-(trifluoromethyl)phenyl]-1,2,4-oxadiazol-5-yl}ethyl]-4-(pyrrolidin-1-yl) benzamide] | > 80%
35 | O=C(N[C@@H](CO)c1nc(-c2cccc(C(F)(F)F)c2)no1)c1cc(F)cc(Cl)c1 [Compound 222, 3-chloro-5-fluoro-N-[(1S)-2-hydroxy-1-{3-[3-(trifluoromethyl)phenyl]-1,2,4-oxadiazol-5-yl}ethyl]benzamide] | > 80%
36 | O=C(N[C@@H](CO)c1nc(-c2cccc(C(F)(F)F)c2)no1)c1cc2ccccc2[nH]1 [Compound 223, N-[(1S)-2-hydroxy-1-{3-[3-(trifluoromethyl)phenyl]-1,2,4-oxadiazol-5-yl}ethyl]-1H-indole-2-carboxamide] | 40 to 80%
37 | C[Si](C)(C)c1ccc(-c2noc([C@H](CO)NC(=O)c3ccc(F)cc3)n2)cc1 [Compound 224, 4-fluoro-N-[(1S)-2-hydroxy-1-{3-[4-(trimethylsilyl)phenyl]-1,2,4-oxadiazol-5-yl}ethyl]benzamide] | > 80%

Source: patent US10538516B2, “Oxadiazole derivative and pharmaceutical containing same” (National Center for Geriatrics and Gerontology, priority 2015, dated 2020)
